Test results taken from patent USRE28744E, “Crystalline p-hydroxyampicillin and salts thereof” (priority 1968, dated 1976).
Values after ≈ are worked out from the molar mass of the structure shown.

Assays:
E.Coli = assay: in vitro antibacterial screening, M.I.C., E.Coli; assay type: cell-based; details: for MIC: Escherichia coli
Source text: (§1) The four resulting hydroxypenicillins were then submitted to in vitro antibacterial screening in comparison with the two epimers of α-aminobenzylpenicillin.

Klebsiella C 978 = assay: serial dilution in nutrient agar, synergy M.I.C., Klebsiella C 978; assay type: cell-based
Procedure: (§2) Results were obtained by serial dilution in nutrient agar. The inoculum was one drop of an overnight broth culture, and M.I.C. values were read after 18 hours at 37°C.

Paracolon 232 = assay: serial dilution in nutrient agar, synergy M.I.C., Paracolon 232; assay type: cell-based; details: in the presence of 100 μg./ml. Methicillin
Procedure: as §2

Proteus vulgaris K = assay: serial dilution in nutrient agar, synergy M.I.C., Proteus vulgaris K; assay type: cell-based
Procedure: as §2

Shigella flexneri = assay: in vitro antibacterial screening, M.I.C., Shigella flexneri; assay type: cell-based; details: for MIC: Shigella flexneri
Source text: as §1

[1] = absorption studies in human volunteers (oral); details: serum, 500 mg
Procedure: (§3) The two penicillins were then compared with ampicillin in absorption studies in human volunteers. Groups of fasting volunteers were each given 500 mg. of the appropriate penicillin by mouth in capsules, and blood samples were withdrawn at regular intervals and assayed biologically to determine the serum concentration of the penicillins. The urine was also collected over a 6 hour period and similarly assayed to determine the proportion of the dose excreted via the kidneys.

Proteus morganii G = assay: serial dilution in nutrient agar, synergy M.I.C., Proteus morganii G; assay type: cell-based
Procedure: as §2

clinical = details: human, urine, po, 500 mg
Procedure: as §3

E. coli 37 = assay: serial dilution in nutrient agar, synergy M.I.C., E. coli 37; assay type: cell-based; details: in the presence of 100 μg./ml. Nafcillin
Procedure: as §2

Staph. Oxford = assay: inhibition of Staph. Oxford; assay type: cell-based; details: product contaminated with approximately 5% of 6-aminopenicillanic acid; read-out: concentration inhibiting Staph. Oxford
E. coli 2 = assay: inhibition of E. coli 2; assay type: cell-based; details: Escherichia coli, product contaminated with approximately 5% of 6-aminopenicillanic acid, read-out: concentration inhibiting E. coli 2
Gram-negative bacteria = details: 100 μg./ml.
Procedure: as §2

Kleb. pneum = assay: in vitro antibacterial screening, M.I.C., Kleb. pneum; assay type: cell-based
Source text: as §1

Salm. typhi = assay: in vitro antibacterial screening, M.I.C., Salm. typhi; assay type: cell-based; details: for M.I.C. Salm. typhi: in vitro; for MIC: Salmonella enterica, TYPHI, read-out: M.I.C. Salm. typhi, in vitro
Source text: as §1

Proteus mirabilis = assay: in vitro antibacterial screening, M.I.C., Proteus mirabilis; assay type: cell-based
Source text: as §1

[2] = comparison within series; cited from earlier work
[3] = in the presence of 100 μg./ml. Dicloxacillin
[4] = in the presence of 100 μg./ml. Flucloxacillin
[5] = in the presence of 100 μg./ml. Methicillin

## CC1(C)S[C@@H]2[C@H](NC(=O)[C@H](N)c3ccc(O)cc3)C(=O)N2[C@H]1C(=O)O [Example 3, 6-[(-)α-amino-p-hydroxyphenylacetamido]Penicillanic Acid]
E.Coli
  MIC: 5 µg/mL (≈ 13.7 µM)
Klebsiella C 978; None (alone), 18 hours at 37°C
  Minimum inhibitory concentration, Klebsiella C 978: 250 µg/mL
Klebsiella C 978; in the presence of 100 μg./ml. Cloxacillin
  Minimum inhibitory concentration, Klebsiella C 978: 50 µg/mL
Klebsiella C 978; [3]
  Minimum inhibitory concentration, Klebsiella C 978: 50 µg/mL
Klebsiella C 978; [4]
  Minimum inhibitory concentration, Klebsiella C 978: 25 µg/mL
Klebsiella C 978; [5]
  Minimum inhibitory concentration, Klebsiella C 978: 50 µg/mL
Klebsiella C 978; in the presence of 100 μg./ml. Nafcillin
  Minimum inhibitory concentration, Klebsiella C 978: 50 µg/mL
Paracolon 232
  Minimum inhibitory concentration, Paracolon 232: 2.5 µg/mL
Proteus vulgaris K; None (alone), 18 hours at 37°C
  Minimum inhibitory concentration, Proteus vulgaris K: 250 µg/mL
Proteus vulgaris K; [3]
  Minimum inhibitory concentration, Proteus vulgaris K: 2.5 µg/mL
Proteus vulgaris K; [4]
  Minimum inhibitory concentration, Proteus vulgaris K: 5.0 µg/mL
Proteus vulgaris K; [5]
  Minimum inhibitory concentration, Proteus vulgaris K: 50 µg/mL
Shigella flexneri
  MIC: 2.5 µg/mL (≈ 6.84 µM)
[1]
  concentration at 0.5 h: 2900 ng/mL
  concentration at 1 h: 8250 ng/mL
  concentration at 2 h: 10800 ng/mL
  concentration at 4 h: 3100 ng/mL
  concentration at 6 h: 1130 ng/mL
Proteus morganii G; None (alone), 18 hours at 37°C
  Minimum inhibitory concentration, Proteus morganii G: 250 µg/mL
Proteus morganii G; [3]
  Minimum inhibitory concentration, Proteus morganii G: 5.0 µg/mL
Proteus morganii G; [4]
  Minimum inhibitory concentration, Proteus morganii G: 5.0 µg/mL
clinical
  dose excreted at 6 h: 74.5%
E. coli 37
  Minimum inhibitory concentration, E. coli 37: 2.5 µg/mL

## CC1(C)S[C@@H]2[C@H](NC(=O)[C@H](N)c3ccc(OC(=O)OCc4ccccc4)cc3)C(=O)N2[C@H]1C(=O)O [Example 12, 6-[(-)-α-amino-α-(p-benzyloxycarbonyloxyphenyl)-acetamido]penicillanic acid]
Staph. Oxford
  MIC: 0.1 µg/mL (≈ 0.2 µM)
E. coli 2
  MIC: 5 µg/mL (≈ 10 µM)

## Cc1onc(-c2ccccc2Cl)c1C(=O)N[C@@H]1C(=O)N2[C@@H]1SC(C)(C)[C@@H]2C(=O)O [cloxacillin]
Gram-negative bacteria
  inhibition of the Gram-negative bacteria by the penicillinase-resistant penicillin by itself: None of these penicillinase-resistant penicillins by itself inhibits the Gram-negative bacteria at 100 μg./ml.

## CC1(C)S[C@@H]2C(NC(=O)C(N)c3cccc(O)c3)C(=O)N2[C@H]1C(=O)O (stereo partly drawn) [Example 7, 6[(-)α-amino-m-hydroxyphenylacetamido]penicillanic Acid]
E.Coli; listed as m OH -
  M.I.C. E.Coli: 5 µg/mL
Kleb. pneum; listed as m OH -
  M.I.C. Kleb. pneum: 1.25 µg/mL
Shigella flexneri; listed as m OH -
  M.I.C. Shigella flexneri: 2.5 µg/mL
[1]
  concentration at 0.5 h: 910 ng/mL
  concentration at 1 h: 2500 ng/mL
  concentration at 2 h: 2860 ng/mL
  concentration at 4 h: 1150 ng/mL
  concentration at 6 h: 440 ng/mL
Salm. typhi; listed as m OH -
  M.I.C. Salm. typhi: 1.25 µg/mL
Proteus mirabilis; listed as m OH -
  M.I.C. Proteus mirabilis: 2.5 µg/mL
clinical
  dose excreted at 6 h: 31%

## CC1(C)S[C@@H]2[C@H](NC(=O)[C@@H](N)c3ccc(O)cc3)C(=O)N2[C@H]1C(=O)O [Example 4, 6[(+)α-amino-p-hydroxyphenylacetamido]penicillanic Acid]
E.Coli
  MIC: 25 µg/mL (≈ 68.4 µM)

## CCOc1ccc2ccccc2c1C(=O)N[C@@H]1C(=O)N2[C@@H]1SC(C)(C)[C@@H]2C(=O)O [nafcillin]
Gram-negative bacteria
  inhibition of the Gram-negative bacteria by the penicillinase-resistant penicillin by itself: None of these penicillinase-resistant penicillins by itself inhibits the Gram-negative bacteria at 100 μg./ml.

## CC1(C)S[C@@H]2C(NC(=O)C(N)c3cccc(O)c3)C(=O)N2[C@H]1C(=O)O (stereo partly drawn) [Example 8, 6[(+)α-amino-m-hydroxyphenylacetamido]penicillanic Acid]
E.Coli; listed as m OH +
  M.I.C. E.Coli: 25 µg/mL
Kleb. pneum; listed as m OH +
  M.I.C. Kleb. pneum: 12.5 µg/mL
Shigella flexneri; listed as m OH +
  M.I.C. Shigella flexneri: 25 µg/mL
Salm. typhi; listed as m OH +
  M.I.C. Salm. typhi: 12.5 µg/mL
Proteus mirabilis; listed as m OH +
  M.I.C. Proteus mirabilis: 25 µg/mL

## Cc1onc(-c2c(Cl)cccc2Cl)c1C(=O)N[C@@H]1C(=O)N2[C@@H]1SC(C)(C)[C@@H]2C(=O)O [dicloxacillin]
Gram-negative bacteria
  inhibition of the Gram-negative bacteria by the penicillinase-resistant penicillin by itself: None of these penicillinase-resistant penicillins by itself inhibits the Gram-negative bacteria at 100 μg./ml.
[2]
  oral absorption of known penicillins (in words): better absorbed than cloxacillin

## CC1(C)S[C@@H]2[C@H](NC(=O)[C@H](N)c3ccccc3)C(=O)N2[C@H]1C(=O)O [Ampicillin, D(-)-epimer of α-aminobenzyl penicillin]
E.Coli
  MIC: 5 µg/mL (≈ 14.3 µM)
Kleb. pneum
  MIC: 2.5 µg/mL (≈ 7.15 µM)
Shigella flexneri
  MIC: 12.5 µg/mL (≈ 35.8 µM)
Salm. typhi
  MIC: 0.6 µg/mL (≈ 1.72 µM)
Proteus mirabilis; Proteus mirabilis
  MIC: 1.25 µg/mL (≈ 3.58 µM)
clinical
  dose excreted at 6 h: 42%

## Cc1onc(-c2c(F)cccc2Cl)c1C(=O)N[C@@H]1C(=O)N2[C@@H]1SC(C)(C)[C@@H]2C(=O)O [flucloxacillin]
Gram-negative bacteria
  inhibition of the Gram-negative bacteria by the penicillinase-resistant penicillin by itself: None of these penicillinase-resistant penicillins by itself inhibits the Gram-negative bacteria at 100 μg./ml.

## COc1cccc(OC)c1C(=O)N[C@@H]1C(=O)N2[C@@H]1SC(C)(C)[C@@H]2C(=O)O [methicillin]
Gram-negative bacteria
  inhibition of the Gram-negative bacteria by the penicillinase-resistant penicillin by itself: None of these penicillinase-resistant penicillins by itself inhibits the Gram-negative bacteria at 100 μg./ml.

## CC1(C)S[C@@H]2[C@H](NC(=O)[C@@H](N)c3ccccc3)C(=O)N2[C@H]1C(=O)O [None +, reference compound]
E.Coli
  MIC: 12.5 µg/mL (≈ 35.8 µM)
Kleb. pneum
  MIC: 5 µg/mL (≈ 14.3 µM)
Salm. typhi
  MIC: 2.5 µg/mL (≈ 7.15 µM)
